Source: patent publication US20090291964A1, “Potentiators of Antibacterial Activity” (priority 2003, published 2009)

Tests used:
[1] = system: permeability mutant strains of E. coli; assay: MIC of EtBr in presence and absence of EPI; type: cell-based
Description: (§1) EtBr is a general substrate for many different efflux pumps in bacteria. Markham et al., “Multiple Novel Inhibitors of the NorA Multidrug Transporter of Staphylococcus aureus”, Antimicrob. Agents Chemother. 43:2404-2408 (1999). Since EtBr is a non-specific DNA intercalator, the only known mechanism of resistance to EtBr is via efflux. Markham et al., “Multiple Novel Inhibitors of the NorA Multidrug Transporter of Staphylococcus aureus”, Antimicrob. Agents Chemother. 43:2404-2408 (1999).

[2] = system: B. subtilis; assay: MIC of EtBr in presence and absence of EPI; type: cell-based; details: B. subtilis wild type, EPI up to 100 μg/ml, data not shown
Description: as §1

[3] = alone and in combination with chemotherapeutic agents for cancer therapies; cited from earlier work

SMILES | efflux inhibitory activity [1] | reduction of the MIC of EtBr [2] | adverse events in clinical studies [3]
COc1cc(C(=O)C(=O)N(C)[C@@H](Cc2ccc(Cl)cc2)C(=O)N(Cc2ccccc2)C(CCc2ccncc2)CCc2ccncc2)cc(OC)c1OC [C-9, (S)—N-Benzyl-2-(methyl-(2-oxo-2-(3,4,5-trimethoxyphenyl)acetyl)amino)-3-(4-chloro-phenyl)-N-(3-pyridin-4-yl-1-(2-pyridin-4-yl-ethyl)propyl)propionamide] | some efflux inhibitory activity was observed | 8 fold | –
COc1cc(C(=O)C(=O)N2CCCC[C@H]2C(=O)OC(CCCc2cccnc2)CCCc2cccnc2)cc(OC)c1OC [A-106] | some efflux inhibitory activity was observed | 8 fold | only mild adverse events
